Assay results: ChEMBL document CHEMBL1137983, “AL-12182, a novel 11-oxa prostaglandin analog with topical ocular hypotensive activity in the monkey” (Bioorg Med Chem Lett, 2004)

Legend:
Oryctolagus cuniculus = species: Oryctolagus cuniculus; assay: Effective dose estimated to elicit conjunctival hyperemia in rabbits over 4 h; type: functional, Conjunctiva
Monkey [1] = assay: Percentage change to elicit monkey intraocular pressure at 3 ug; type: functional, Cercopithecidae, Eye
Felis catus = species: Felis catus; assay: Effective dose to cat pupil diameter constriction
[2] = target: Prostaglandin F2-alpha receptor (Bos taurus, UniProt P37289); assay: Binding affinity for Prostanoid FP receptor of bovine corpus luteum
Prostaglandin F2-alpha receptor, sequence (P37289 whole entry): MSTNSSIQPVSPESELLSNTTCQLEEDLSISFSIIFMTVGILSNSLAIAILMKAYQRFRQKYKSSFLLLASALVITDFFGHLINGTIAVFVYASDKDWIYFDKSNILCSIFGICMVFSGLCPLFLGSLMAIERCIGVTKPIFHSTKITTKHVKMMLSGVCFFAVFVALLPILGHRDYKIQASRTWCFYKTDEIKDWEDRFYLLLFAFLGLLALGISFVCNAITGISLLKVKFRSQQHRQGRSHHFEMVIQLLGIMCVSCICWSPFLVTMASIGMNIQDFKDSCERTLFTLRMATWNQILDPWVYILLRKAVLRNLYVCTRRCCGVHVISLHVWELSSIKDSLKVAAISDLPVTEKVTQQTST

[3] = target: Prostaglandin F2-alpha receptor (Mus musculus) (UniProt P43117); assay: Percent response for stimulation of prostanoid FP receptor-linked phosphoinositide turnover in Swiss 3T3 mouse fibroblast cells
Prostaglandin F2-alpha receptor (Mus musculus), sequence (P43117 whole entry, looked up): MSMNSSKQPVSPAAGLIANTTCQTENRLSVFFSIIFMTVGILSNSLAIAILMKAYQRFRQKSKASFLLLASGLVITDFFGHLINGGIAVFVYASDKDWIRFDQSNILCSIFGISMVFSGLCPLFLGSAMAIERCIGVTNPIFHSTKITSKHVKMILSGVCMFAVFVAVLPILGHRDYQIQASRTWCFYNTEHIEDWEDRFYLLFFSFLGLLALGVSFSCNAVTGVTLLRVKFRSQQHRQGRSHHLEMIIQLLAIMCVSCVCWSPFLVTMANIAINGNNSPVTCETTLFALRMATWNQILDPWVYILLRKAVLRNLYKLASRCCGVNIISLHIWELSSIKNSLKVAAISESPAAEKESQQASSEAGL

Monkey [4] = assay: Percentage change to elicit monkey intraocular pressure at 30 ug; type: functional, Cercopithecidae, Eye
Monkey [5] = assay: Percentage change to elicit monkey intraocular pressure at 0.3 ug; type: functional, Cercopithecidae, Eye
Monkey [6] = assay: Percentage change to elicit monkey intraocular pressure at 1 ug; type: functional, Cercopithecidae, Eye

Ki [2] | Response [3] | SMILES | further results
 |  | CC(C)OC(=O)CCC/C=C\CC[C@H]1[C@@H](O)CO[C@@H]1/C=C/[C@@H](O)COc1cccc(Cl)c1 [AL-12182] | ED5 (Oryctolagus cuniculus): 30 µg; Change (Monkey [1]): -40%; ED5 (Felis catus): 0.2 µg
5100 nM | 59% | O=C(O)CC/C=C\CCC[C@H]1[C@@H](O)CO[C@@H]1/C=C/[C@H](O)COc1ccccc1 | 
> 10000 nM |  | CCCCC[C@@H](O)/C=C/[C@H]1OC[C@H](O)[C@@H]1C/C=C\CCCC(=O)O | 
350 nM | 88% | O=C(O)CC/C=C\CCC[C@H]1[C@@H](O)CO[C@@H]1/C=C/[C@@H](O)COc1cccc(C(F)(F)F)c1 | 
 |  | CC(C)OC(=O)CCC/C=C\C[C@H]1[C@@H](O)CO[C@@H]1/C=C/[C@@H](O)COc1cccc(Cl)c1 | ED5 (Oryctolagus cuniculus): 30 µg; Change (Monkey [4]): -15%; ED5 (Felis catus): 0.8 µg
640 nM | 67% | O=C(O)CCCC/C=C\C[C@H]1[C@@H](O)CO[C@@H]1/C=C/[C@@H](O)COc1ccccc1 | 
820 nM | 71% | O=C(O)CC/C=C\CCC[C@H]1[C@@H](O)CO[C@@H]1/C=C/[C@H](O)COc1cccc(Cl)c1 | 
52 nM | 100% | CC(C)OC(=O)CCC/C=C/C[C@@H]1[C@@H](/C=C/C(O)COc2cccc(C(F)(F)F)c2)[C@H](O)C[C@@H]1O (stereo partly specified) | ED5 (Oryctolagus cuniculus): 3 µg; Change (Monkey [5]): -29%; ED5 (Felis catus): 0.01 µg
7300 nM | 67% | O=C(O)CCCC/C=C\C[C@H]1[C@@H](O)CO[C@@H]1/C=C/[C@H](O)COc1cccc(Cl)c1 | 
6700 nM | 64% | CCCCC[C@H](O)/C=C/[C@H]1OC[C@H](O)[C@@H]1C/C=C\CCCC(=O)O | 
2800 nM | 49% | O=C(O)CCCC/C=C\C[C@H]1[C@@H](O)CO[C@@H]1/C=C/[C@H](O)COc1ccccc1 | 
92 nM | 75% | CC(C)OC(=O)CCC/C=C/C[C@@H]1[C@@H](CC[C@@H](O)CCc2ccccc2)[C@H](O)C[C@@H]1O | ED5 (Oryctolagus cuniculus): 1.8 µg; Change (Monkey [1]): -27%; ED5 (Felis catus): 0.13 µg
 |  | CCCCC[C@H](O)/C=C/C1[C@H](O)C[C@H](O)[C@@H]1C/C=C\CCCC(=O)OC(C)C (stereo partly specified) | ED5 (Oryctolagus cuniculus): <0.1 µg; Change (Monkey [6]): -38%; ED5 (Felis catus): 0.03 µg
147 nM | 88% | O=C(O)CC/C=C\CCC[C@H]1[C@@H](O)CO[C@@H]1/C=C/[C@@H](O)COc1cccc(Cl)c1 | 
9900 nM | 61% | O=C(O)CC/C=C\CCC[C@H]1[C@@H](O)CO[C@@H]1/C=C/[C@H](O)COc1cccc(C(F)(F)F)c1 | 
330 nM | 83% | O=C(O)CC/C=C\CCC[C@H]1[C@@H](O)CO[C@@H]1/C=C/[C@@H](O)COc1ccccc1 | 
3100 nM | 74% | O=C(O)CCCC/C=C\C[C@H]1[C@@H](O)CO[C@@H]1/C=C/[C@@H](O)COc1cccc(C(F)(F)F)c1 | 
890 nM | 84% | O=C(O)CCCC/C=C\C[C@H]1[C@@H](O)CO[C@@H]1/C=C/[C@@H](O)COc1cccc(Cl)c1 | 
> 10000 nM | 43% | O=C(O)CCCC/C=C\C[C@H]1[C@@H](O)CO[C@@H]1/C=C/[C@H](O)COc1cccc(C(F)(F)F)c1 | 
